Experimental data as given in US20210147367A1, “CRYSTALLINE FORMS OF A MAGL INHIBITOR” (Lundbeck La Jolla Research Center, Inc., priority 2019, published 2021).
Entries after “also recorded” stand apart in the source; their conditions may differ. Read-outs that look alike come from different tables or passages of the source.

Assays:
[1] = Differential scanning calorimetry (DSC) with XRPD after heating: relative stability of crystalline forms; format: physicochemical; settings: for thermodynamic stability relative to other crystalline forms: DSC analysis; for solid form after heating (XRPD): heated to 130° C., above the exotherm, prior to melting
Description: X-Ray powder diffractograms were measured on a PANalytical X'Pert PRO X-Ray Diffractometer using CuKα1 radiation (λ=1.5406 Å). The samples were measured in reflection mode in the 2θ-range 3-40 using an X'celerator detector.
Differential Scanning Calorimetry was measured using a TA-Instruments Discovery-DSC calibrated at 5°/min to give the melting point as onset value. About 2 mg of sample is heated 5°/min under nitrogen flow in a closed pan with a pinhole in the lid.

[2] = Slurry experiments in different solvents; format: physicochemical
MAGL [3] = molecular target: T1, MAGL (Homo sapiens, UniProt Q99685); assay: In vitro competitive activity-based protein profiling; format: biochemical
T1 construct: human prefrontal cortex or cell membrane fractions for human assays; from tissue
T1 sequence (Q99685 1-303): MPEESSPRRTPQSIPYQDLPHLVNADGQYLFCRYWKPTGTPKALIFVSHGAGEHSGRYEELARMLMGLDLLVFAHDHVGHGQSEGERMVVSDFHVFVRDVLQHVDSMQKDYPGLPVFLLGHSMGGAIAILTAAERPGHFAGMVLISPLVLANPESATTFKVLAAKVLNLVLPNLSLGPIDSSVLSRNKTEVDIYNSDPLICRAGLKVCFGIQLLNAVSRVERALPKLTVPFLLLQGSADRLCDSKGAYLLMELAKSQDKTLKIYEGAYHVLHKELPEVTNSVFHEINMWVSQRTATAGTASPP
Description: (§1) Proteomes (mouse brain membrane fraction or cell lysates for mouse assays; human prefrontal cortex or cell membrane fractions for human assays) (50 μL, 1.0 mg/mL total protein concentration) were preincubated with varying concentrations of inhibitors at 37° C. After 30 min, FP-Rh or HT-01 (1.0 μL, 50 μM in DMSO) was added and the mixture was incubated for another 30 min at 37° C. Reactions were quenched with SDS loading buffer (15 μL-4×) and run on SDS-PAGE. Following gel imaging, serine hydrolase activity was determined by measuring fluorescent intensity of gel bands corresponding to MAGL using ImageJ 1.43u software.

MAGL [4] = molecular target: T2, MAGL (Mus musculus, UniProt O35678); assay: MAGL inhibition in mouse brain proteomes from inhibitor treated mice; format: in vivo; settings: 5 mg/kg oral gavage, brain proteome 4 h after administration, C57Bl/6J mice, read-out: MAGL % inh. 5 mg/kg (mouse)
T2 construct: from tissue; host or cells: brain of wild-type C57Bl/6J mice
T2 sequence (O35678 1-303): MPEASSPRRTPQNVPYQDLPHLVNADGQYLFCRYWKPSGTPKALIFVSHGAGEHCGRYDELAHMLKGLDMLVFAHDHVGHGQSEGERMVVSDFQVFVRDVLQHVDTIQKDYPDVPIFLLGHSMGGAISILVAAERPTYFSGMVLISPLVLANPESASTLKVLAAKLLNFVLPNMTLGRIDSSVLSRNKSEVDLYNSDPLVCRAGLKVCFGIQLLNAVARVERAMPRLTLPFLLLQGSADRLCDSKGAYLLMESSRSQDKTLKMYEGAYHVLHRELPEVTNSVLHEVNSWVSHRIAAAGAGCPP
Description: as §1
Inhibitors were administered to wild-type C57Bl/6J by oral gavage in a vehicle of polyethylene glycol. Each animal was sacrificed 4 h following administration and brain proteomes were prepared and analyzed according to previously established methods (See Niphakis et al., ACS Chem. Neurosci. 2011 and Long et al. Nat. Chem. Biol. 2009).

[5] = Dynamic vapor sorption (DVS); format: physicochemical
Description: Dynamic vapour sorption (DVS) was measured using SMS DVS advantage 01 changing the relative humidity from 0% RH to 95% RH in steps of 10% RH (5% between 90 and 95% RH). 2 cycles were performed using 4 mg, starting at 30% RH. The weight changes during the sorption/desorption cycles were plotted, allowing for the hygroscopic nature of the sample to be determined.

CC(C)(Oc1cc(C(F)(F)F)ccc1CN1CCN(C(=O)OC(C(F)(F)F)C(F)(F)F)CC1)C(=O)O [Compound (I) form D, 2-(2-((4-(((1,1,1,3,3,3-hexafluoropropan-2-yl)oxy)carbonyl)piperazin-1-yl)methyl)-5-(trifluoromethyl)phenoxy)-2-methylpropanoic acid form D]
thermodynamic stability relative to other crystalline forms [1]: more thermodynamically stable at higher temperatures
thermodynamic stability relative to other crystalline forms ([1]; listed as Compound (I) Form D): more thermodynamically stable at high temperature but less stable at low temperature compared to Compound (I) Form A
temperature above which Compound (I) Form D is the more stable form ([2]; compared with Form A, inferred from slurry experiments): ≥ 60 °C

CC(C)(Oc1cc(C(F)(F)F)ccc1CN1CCN(C(=O)OC(C(F)(F)F)C(F)(F)F)CC1)C(=O)O [Compound (I), 2-(2-((4-(((1,1,1,3,3,3-hexafluoropropan-2-yl)oxy)carbonyl)piperazin-1-yl)methyl)-5-(trifluoromethyl)phenoxy)-2-methylpropanoic acid]
inhibition at 1 µM (MAGL [3]; 1 μM, human proteome, read-out: MAGL % inh. 1 μM (human)): ≥ 75%
IC50 (MAGL [3]; human proteome, read-out: MAGL IC50 (human)): ≤ 50 nM
IC50 (MAGL [3]; protocol of example 14, read-out: MAGL IC50): ≤ 50 nM
inhibition at 5 mg/kg (MAGL [4]): ≥ 75%

CC(C)(Oc1cc(C(F)(F)F)ccc1CN1CCN(C(=O)OC(C(F)(F)F)C(F)(F)F)CC1)C(=O)O [Compound (I) form E, 2-(2-((4-(((1,1,1,3,3,3-hexafluoropropan-2-yl)oxy)carbonyl)piperazin-1-yl)methyl)-5-(trifluoromethyl)phenoxy)-2-methylpropanoic acid form E]
solid form after heating (XRPD) ([1]; listed as Form E): transformed into Compound (I) Form A

CC(C)(Oc1cc(C(F)(F)F)ccc1CN1CCN(C(=O)OC(C(F)(F)F)C(F)(F)F)CC1)C(=O)O.O [Compound (I) hydrate, 2-(2-((4-(((1,1,1,3,3,3-hexafluoropropan-2-yl)oxy)carbonyl)piperazin-1-yl)methyl)-5-(trifluoromethyl)phenoxy)-2-methylpropanoic acid hydrate]
behaviour in sorption/desorption cycles ([5]; 0% RH to 95% RH, 2 cycles): dehydration of the hydrate occurs at low relative humidity
solid state after DVS measurement ([5]; after 2 cycles 0% RH to 95% RH): turned amorphous

CC(C)(Oc1cc(C(F)(F)F)ccc1CN1CCN(C(=O)OC(C(F)(F)F)C(F)(F)F)CC1)C(=O)O [Compound (I) form C, 2-(2-((4-(((1,1,1,3,3,3-hexafluoropropan-2-yl)oxy)carbonyl)piperazin-1-yl)methyl)-5-(trifluoromethyl)phenoxy)-2-methylpropanoic acid form C]
solid form after heating (XRPD) ([1]; listed as Compound (I) Form C): transformed into Form A

CC(C)(Oc1cc(C(F)(F)F)ccc1CN1CCN(C(=O)OC(C(F)(F)F)C(F)(F)F)CC1)C(=O)O [Compound (I) form A, 2-(2-((4-(((1,1,1,3,3,3-hexafluoropropan-2-yl)oxy)carbonyl)piperazin-1-yl)methyl)-5-(trifluoromethyl)phenoxy)-2-methylpropanoic acid form A]
thermodynamic stability relative to other crystalline forms [1]: the most stable free form up to 60 °C
thermodynamic stability relative to other crystalline forms ([1]; listed as Compound (I) Form A): thermodynamically more stable than Compound (I) Form C; also recorded: thermodynamically more stable than Compound (I) Form E
transformation of solid form in slurry ([2]; different solvents, temperatures up to 60° C.): did not lead to transformation into Compound (I) Form D
